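The compound was tested at five concentrations on cells cultured in 96-well plates, with a 48-hour exposure period. Abbreviation: GI50, concentration required for 50% inhibition of growth.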 Calls of active or inactive are those of the source. Rule as the data show it: active = GI50 up to about 1.1 µM and inactive = higher.

Assay in all cases: NCI anticancer screen, dose series, 48 h
Experiment [1] concerns SK-MEL-5.
For experiment [2], the system named is OVCAR-8.
Experiment [3] has as its system LOX IMVI.
The test system of experiment [4] is SF-295.
For experiment [5], the system named is SNB-75.
In experiment [6] the test system is NCI-H226.
In experiment [7] the test system is CCRF-CEM.
The test system of experiment [8] is IGROV-1.
Experiment [9] deals with ACHN.
Experiment [10] has as its system HCT-116.
The test system of experiment [11] is NCI-H522.
Experiment [12] concerns SK-MEL-2.
The subject of experiment [13] is Hs-578T.
The subject of experiment [14] is PC-3.
Experiment [15] relates to CAKI-1.
Experiment [16] has as its system RXF 393.
Experiment [17] relates to SW-620.
In experiment [18] the test system is SN12C.
The test system of experiment [19] is M14.
Experiment [20] concerns A498.

Regarding `COc1ccc(/C=N/n2c(-c3ccccc3)n[nH]c2=O)c(OC)c1`, the GI50 was > 68.9 µM (inactive) in experiment [1]; 29.9 µM (inactive) in experiment [2]; 47.4 µM (inactive) in experiment [3]; 32.7 µM (inactive) in experiment [4]; 27 µM (inactive) in experiment [5]; 51.1 µM (inactive) in experiment [6]. Moreover, the GI50 in experiment [7] was > 100 µM (inactive); in experiment [8], 36.9 µM (inactive); in experiment [9] it was 29 µM (inactive); in [10], 54.5 µM (inactive); in [11] it was > 52.2 µM (inactive); in experiment [12] it was 48.2 µM (inactive). The GI50 in experiment [13] was 37.2 µM (inactive); in [14] it was 50.1 µM (inactive); in experiment [15] it was 41.2 µM (inactive); in experiment [16] it was 29.3 µM (inactive); in [17], > 100 µM (inactive); in experiment [18], 44 µM (inactive). In addition, the GI50 in experiment [19] is 98.2 µM (inactive); in experiment [20], 31.6 µM (inactive).

Take `CCn1c(SCC(=O)NNC(=S)Nc2ccc(F)cc2)nc2ccccc2c1=O`: the GI50 in [1], in experiment [2], in experiment [3], in experiment [4], in experiment [5] and in experiment [6] was > 100 µM (inactive) throughout. For the same compound, the GI50 in experiment [7] was > 100 µM (inactive); in [8], > 100 µM (inactive); in experiment [9], > 100 µM (inactive); in experiment [10], > 100 µM (inactive); in experiment [11], 48 µM (inactive); in [12], > 100 µM (inactive). Moreover, the GI50 is > 100 µM (inactive) in experiment [13]; 66.1 µM (inactive) in experiment [14]; > 100 µM (inactive) in [16]; > 100 µM (inactive) in experiment [17]; > 100 µM (inactive) in experiment [18]; > 100 µM (inactive) in experiment [19]. The GI50 in experiment [20] was > 100 µM (inactive).

As to `CC1=NOC2(C1)C(=O)Nc1ccccc12` (centres undefined), the GI50 in [1] was 60.5 µM (inactive); in [2] it was > 100 µM (inactive); in experiment [3], > 100 µM (inactive); in [4], > 100 µM (inactive); in experiment [5], 66.2 µM (inactive); in [6] it was 50.8 µM (inactive). Also, the GI50 in experiment [7], in experiment [8], in experiment [9], in experiment [10], in [11] and in experiment [12] was > 100 µM (inactive) in each case. Besides, the GI50 in experiment [13] was > 100 µM (inactive); in experiment [14] it was > 100 µM (inactive); in experiment [15], 30.3 µM (inactive); in [16], > 100 µM (inactive); in experiment [17], 24.4 µM (inactive); in experiment [18], > 100 µM (inactive). Besides, the GI50 was > 100 µM (inactive) in [19] and 34.3 µM (inactive) in experiment [20].

Regarding `CC1(C)CC(=O)C2=C(C1)NC(SCC(=O)O)=C(C#N)C2c1ccc(Br)cc1` (centres undefined), the GI50 in [1], in experiment [2], in experiment [3], in experiment [4], in [5] and in experiment [6] was > 100 µM (inactive) each time. The GI50 in experiment [7] was > 100 µM (inactive); in experiment [8] it was > 100 µM (inactive); in [9], > 100 µM (inactive); in experiment [10] it was > 100 µM (inactive); in experiment [11] it was 86.5 µM (inactive); in experiment [12], > 100 µM (inactive). Besides, the GI50 in [13], in experiment [14], in experiment [15], in [16], in [17] and in [19] was > 100 µM (inactive) throughout. In addition, in experiment [20], the GI50 was > 100 µM (inactive).

With `C/C(=N\Nc1nc2ccccc2s1)c1ccncn1`, the GI50 in experiment [1] is 0.621 µM (active); in experiment [2] it was 0.286 µM (active); in experiment [4], 3.31 µM (inactive); in [5] it was 4.1 µM (inactive); in experiment [6], 0.14 µM (active); in experiment [7], 0.117 µM (active). Moreover, the GI50 in experiment [8] is 0.485 µM (active); in experiment [9], 0.0673 µM (active); in experiment [10], 0.532 µM (active); in [11], 0.12 µM (active); in experiment [12], 8.09 µM (inactive); in experiment [13], 6.03 µM (inactive). Moreover, the GI50 in experiment [14] is 2.06 µM (inactive); in experiment [15], 0.145 µM (active); in [16], 7.74 µM (inactive); in [17], 0.229 µM (active); in [18], 0.379 µM (active); in experiment [19], 0.51 µM (active). In addition, the GI50 in experiment [20] is > 100 µM (inactive).

For `CCCCCCC1OC23OC1CCC2C(O)CCC3O` (centres undefined), the GI50 in experiment [1], in experiment [2], in experiment [3], in [4], in experiment [5] and in [6] was > 100 µM (inactive) in each case. The GI50 in experiment [8] is > 100 µM (inactive); in experiment [9], 97.7 µM (inactive); in experiment [10], > 100 µM (inactive); in experiment [11] it was > 100 µM (inactive); in experiment [12] it was > 100 µM (inactive); in [13], > 100 µM (inactive). The GI50 in experiment [14], in experiment [15], in experiment [16], in experiment [17], in experiment [18] and in [20] was > 100 µM (inactive) throughout.

For `C/C=C/C(C#N)(/C=C/c1ccccc1)OP1(=O)OC(c2ccccc2)C(C)N1C` (centres undefined), the GI50 in experiment [1] is 16.9 µM (inactive); in [2] it was 17.9 µM (inactive); in [3], 18.2 µM (inactive); in [4], 16.3 µM (inactive); in experiment [5], 20.5 µM (inactive); in [7] it was 11 µM (inactive). Besides, the GI50 was 16.4 µM (inactive) in experiment [8]; 26.9 µM (inactive) in experiment [9]; 16.6 µM (inactive) in experiment [10]; 20.7 µM (inactive) in [11]; 18.6 µM (inactive) in experiment [12]; 22.4 µM (inactive) in [13]. Moreover, the GI50 in experiment [14] was 17 µM (inactive); in [15], 23.3 µM (inactive); in experiment [16], 20.7 µM (inactive); in experiment [17], 16.1 µM (inactive); in [18], 19.2 µM (inactive); in experiment [19] it was 20 µM (inactive). In [20], the GI50 was 20.1 µM (inactive).

As to `COc1ccc(Cl)cc1NC(=O)c1cccc([N+](=O)[O-])c1O`, the GI50 in experiment [1] is 4 µM (inactive); in [2], 17.8 µM (inactive); in experiment [3], 13.7 µM (inactive); in [4], 17.8 µM (inactive); in [5] it was 17.8 µM (inactive); in experiment [6], 15 µM (inactive). The GI50 in experiment [7] was 16 µM (inactive); in experiment [8], 8.34 µM (inactive); in experiment [9] it was 12.4 µM (inactive); in [10] it was 16.6 µM (inactive); in [11], 6.49 µM (inactive); in experiment [12], 4.17 µM (inactive). Further, the GI50 in experiment [13] is 17.5 µM (inactive); in experiment [14] it was 9.14 µM (inactive); in experiment [15], 16.2 µM (inactive); in experiment [16], 12 µM (inactive); in [17], 22.7 µM (inactive); in experiment [18], 12.6 µM (inactive). Further, the GI50 in experiment [19] is 24.4 µM (inactive); in experiment [20], 5.7 µM (inactive).
